Test results as given in US20140057895A1, “INDAZOLE- AND PYRROLOPYRIDINE-DERIVATIVE AND PHARMACEUTICAL USE THEREOF” (priority 2011, published 2014).
Counter-ions that a name gives are not always drawn. Like-named read-outs stand apart in the source and are kept apart here.

Assays:
5-HT4 receptor = molecular target: T1, 5-HT4 receptor (Cavia porcellus, UniProt O70528); experiment: Test Example 3: Guinea pig 5-HT4 receptor binding assay, [3H]-GR113808, striatum membranes (Table 98)
T1 construct: striatum was isolated which was cryopreserved at −80° C. until use; from tissue; host or cells: guinea pig (Slc-Hartley) striatum membranes
T1 sequence (O70528 whole entry): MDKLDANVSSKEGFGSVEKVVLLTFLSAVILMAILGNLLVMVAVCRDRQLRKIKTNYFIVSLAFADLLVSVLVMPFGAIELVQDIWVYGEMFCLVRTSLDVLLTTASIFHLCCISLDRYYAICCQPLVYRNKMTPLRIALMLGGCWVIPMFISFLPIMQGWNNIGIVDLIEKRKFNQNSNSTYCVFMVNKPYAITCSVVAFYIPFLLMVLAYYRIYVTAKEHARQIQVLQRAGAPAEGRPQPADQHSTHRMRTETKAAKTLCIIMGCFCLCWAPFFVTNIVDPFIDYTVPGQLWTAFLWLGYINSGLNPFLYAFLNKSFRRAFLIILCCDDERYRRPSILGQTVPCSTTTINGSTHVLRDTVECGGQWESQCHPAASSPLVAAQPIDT
How it was run: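 Striatal membranes from Slc-Hartley guinea pigs were incubated with 0.1 nM [3H]-GR113808 and test compounds in 50 mM Hepes pH 7.4 at 37° C for 30 min; nonspecific binding was defined with 30 μM serotonin. Bound radioactivity was collected by filtration, and IC50 was derived from inhibition of specific binding.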

human 5-HT4b receptor = molecular target: T2, human 5-HT4b receptor (Homo sapiens, UniProt Q13639); experiment: Test Example 4: Serotonin 4 (5-HT4) receptor agonist activity assay, cAMP HTRF in CHO cells (Table 100); type: cell-based; settings: mean value; for Emax: CHO, 0.25 h, intrinsic activity, maximal activity of 5-HT defined as 100%, read-out: IA (%); for EC50: concentration showing 50% of IA
T2 construct: expressed in transfected cells; host or cells: CHO cells (G418 selection)
T2 sequence (Q13639 whole entry): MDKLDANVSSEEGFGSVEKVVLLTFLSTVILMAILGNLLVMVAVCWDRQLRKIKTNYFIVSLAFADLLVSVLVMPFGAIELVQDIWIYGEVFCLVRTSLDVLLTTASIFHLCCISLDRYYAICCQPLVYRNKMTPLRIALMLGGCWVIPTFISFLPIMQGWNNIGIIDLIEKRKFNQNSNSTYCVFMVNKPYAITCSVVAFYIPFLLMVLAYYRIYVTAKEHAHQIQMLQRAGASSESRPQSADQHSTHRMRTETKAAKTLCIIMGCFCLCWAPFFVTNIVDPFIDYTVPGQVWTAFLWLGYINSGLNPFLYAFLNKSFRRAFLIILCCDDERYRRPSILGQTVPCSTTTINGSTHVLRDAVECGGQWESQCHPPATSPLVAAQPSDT
Experimental: The cAMP measurement test used herein was carried out by using CISBIO HTRF (trademark) cAMP Hirange kit according to the manufacturer's instructions attached therewith.
CHO cells expressing human 5-HT4b receptor were incubated in Medium 1 [DMEM/1% NEAA, 1% penicillin/streptomycin (P/S), 0.2 mg/mL GENETICIN (G418), 10% FBS] at 37° C. under 5% CO2 condition. Then, the cells were put into Medium 2 (DMEM/10000 cut FBS, G-418, P/S, NEAA) for 1 to 2 hours, and collected by treating with trypsin containing EDTA. The collected cells were suspended in Assay Buffer 1 [100 mM Hanks/HEPES buffer (pH 7.4)], the suspended cells were mixed with the testing compound on 384-well plates, and the cells were incubated at 31° C. for 15 minutes. To the cells were added cAMP-cryptate solution and cAMP-d2 solution, and they were incubated at room temperature for 1 hour. Then, time-resolved fluorescence was measured by En Vision (excitation wavelength: 330 nm, fluorescence wavelength: 620/665 nm).
An intrinsic activity of the compound [IA (%)] and a concentration showing 50% of IA [EC50 (nM)] were calculated from the obtained results. In particular, the intrinsic activity (IA) was calculated on the basis of the maximal activity of 5-HT (measured from 10^−11 M to 10^−7 M) defined as 100%.
In the following table, the compounds used in the test are shown in numbers which correspond to the Example numbers above where the preparations of the compounds are described.

[1] = Guinea pig 5-HT4 receptor binding assay, [3H]-GR113808, striatum membranes, mean value of each group, read-out: IC50

| IC50 (5-HT4 receptor; [1]) | Emax (human 5-HT4b receptor) | EC50 (human 5-HT4b receptor) | Compound | IC50 (5-HT4 receptor) |
| --- | --- | --- | --- | --- |
| < 20 nM | 76.4% | 31.2 nM | CCc1nn(-c2noc(C3CCN(CC4CCOCC4)CC3)n2)c2c(F)c(F)ccc12 [Example 449, 3-ethyl-6,7-difluoro-1-{5-[1-(tetrahydro-2H-pyran-4-ylmethyl)piperidin-4-yl]-1,2,4-oxadiazol-3-yl}-1H-indazole trifluoroacetate] |  |
| < 20 nM | 65.5% | 4.4 nM | CCc1nn(-c2noc(C3CCN(C4CCN(C(=O)COC)CC4)CC3)n2)c2c(F)c(F)ccc12 [Example 461, 1-{4-[3-(3-ethyl-6,7-difluoro-1H-indazol-1-yl)-1,2,4-oxadiazol-5-yl]-1,4′-bipiperidin-1′-yl}-2-methoxyethanone trifluoroacetate] |  |
| 73.9 nM | 85.6% | 8.2 nM | CC(C)c1nn(-c2noc(C3CCN(C4CCC4)CC3)n2)c2ccccc12 [Example 420, 1-[5-(1-cyclobutylpiperidin-4-yl)-1,2,4-oxadiazol-3-yl]-3-(propan-2-yl)-1H-indazole trifluoroacetate] |  |
| < 20 nM | 96.9% | 2.8 nM | CC(=O)N1CC(CN2CCC(c3nc(-n4nc(C(C)C)c5cccc(F)c54)no3)CC2)C1 [Example 219, 1-{3-[(4-{3-[7-fluoro-3-(propan-2-yl)-1H-indazol-1-yl]-1,2,4-oxadiazol-5-yl}piperidin-1-yl)methyl]azetidin-1-yl}ethanone hydrochloride] |  |
| 27.1 nM | 81.1% | 33.5 nM | CC(C)c1nn(-c2noc(C3CCN(C4CCN(C(=O)CO)CC4)CC3)n2)c2ccccc12 [Example 519] |  |
| < 20 nM | 58.8% | 3.2 nM | CCc1nn(-c2noc(C3CCN(C4CCN(S(C)(=O)=O)CC4)CC3)n2)c2c(F)cccc12 [Example 241, 4-[3-(3-ethyl-7-fluoro-1H-indazol-1-yl)-1,2,4-oxadiazol-5-yl]-1′-(methylsulfonyl)-1,4′-bipiperidine] |  |
| < 20 nM | 82.9% | 17.6 nM | CC(C)c1nn(-c2noc(C3CCN(C4CCN(C(=O)CO)CC4)CC3)n2)c2c(F)c(F)ccc12 [Example 520, 1-(4-{3-[6,7-difluoro-3-(propan-2-yl)-1H-indazol-1-yl]-1,2,4-oxadiazol-5-yl}-1,4′-bipiperidin-1′-yl)-2-hydroxyethanone] |  |
| < 20 nM | 83.1% | 13.8 nM | CC(C)c1nn(-c2noc(C3CCN(C4CCC4)CC3)n2)c2c(F)c(F)ccc12 [Example 451, 1-[5-(1-cyclobutylpiperidin-4-yl)-1,2,4-oxadiazol-3-yl]-6,7-difluoro-3-(propan-2-yl)-1H-indazole-trifluoroacetate] |  |
| < 20 nM | 87.7% | 15.8 nM | CC(C)c1nn(-c2noc(C3CCN(C(C)C)CC3)n2)c2c(F)c(F)ccc12 [Example 450, 6,7-difluoro-3-(propan-2-yl)-1-{5-[1-(propan-2-yl)piperidin-4-yl]-1,2,4-oxadiazol-3-yl}-1H-indazole trifluoroacetate] |  |
| < 20 nM | 106% | 1.8 nM | CC(C)c1nn(-c2noc(C3CCN(C(C)(C)CO)CC3)n2)c2c(F)cccc12 [Example 402, 2-(4-{3-[7-fluoro-3-(propan-2-yl)-1-indazol-1-yl]-1,2,4-oxadiazol-5-yl}piperidin-1-yl)-2-methylpropan-1-ol] |  |
| 30 nM | 70.4% | 13.4 nM | CCc1nn(-c2noc(C3CCN(CC4CN(C(=O)OC)C4)CC3)n2)c2c(F)c(F)ccc12 [Example 470, methyl 3-({4-[3-(3-ethyl-6,7-difluoro-1H-indazol-1-yl)-1,2,4-oxadiazol-5-yl]piperidin-1-yl}methyl)azetidine-1-carboxylate trifluoroacetate] |  |
| 65.4 nM | 21.6% | 34.2 nM | COc1ccc(F)c2c1c(C(C)C)nn2-c1noc(C2CCN(C3CCN(C(C)=O)CC3)CC2)n1 [Example 405, 1-(4-{3-[7-fluoro-4-methoxy-3-(propan-2-yl)-1H-indazol-1-yl]-1,2,4-oxadiazol-5-yl}-1,4′-bipiperidin-1′-yl)ethanone] |  |
| < 20 nM | 78.6% | 5.3 nM | CCc1nn(-c2noc(C3CCN(C4CCN(C(C)=O)CC4)CC3)n2)c2c(F)c(F)ccc12 [Example 460, 1-{4-[3-(3-ethyl-6,7-difluoro-1H-indazol-1-yl)-1,2,4-oxadiazol-5-yl]-1,4′-bipiperidin-1′-yl}ethanone trifluoroacetate] |  |
| < 20 nM | 39.7% | 6.8 nM | CCc1nn(-c2noc(C3CCN(C[C@@H]4CCN(C(C)=O)C4)CC3)n2)c2c(F)cccc12 [Example 201, 1-[(3S)-3-({4-[3-(3-ethyl-7-fluoro-1H-indazol-1-yl)-1,2,4-oxadiazol-5-yl]piperidin-1-yl}methyl)pyrrolidin-1-yl]ethanone] |  |
| < 20 nM | 56.8% | 12.2 nM | CCc1nn(-c2noc(C3CCN(C4CCCC4)CC3)n2)c2c(F)c(F)ccc12 [Example 447, 1-[5-(1-cyclopentylpiperidin-4-yl)-1,2,4-oxadiazol-3-yl]-3-ethyl-6,7-difluoro-1H-indazole-trifluoroacetate] |  |
| < 20 nM | 51.9% | 9.7 nM | CCc1nn(-c2noc(C3CCN(C4CCN(C(=O)COC)CC4)CC3)n2)c2c(F)cccc12 [Example 237, 1-{4-[3-(3-ethyl-7-fluoro-1H-indazol-1-yl)-1,2,4-oxadiazol-5-yl]-1,4′-bipiperidin-1′-yl}-2-methoxyethanone hydrochloride] |  |
| < 20 nM | 95.5% | 1.2 nM | CC(C)c1nn(-c2noc(C3CCN(C[C@H]4CCCN4C(=O)CO)CC3)n2)c2c(F)cccc12 [Example 529, 1-{(2R)-2-[(4-{3-[7-fluoro-3-(propan-2-yl)-1H-indazol-1-yl]-1,2,4-oxadiazol-5-yl}piperidin-1-yl)methyl]pyrrolidin-1-yl}-2-hydroxyethanone hydrochloride] |  |
| 23.8 nM | 58.5% | 23.1 nM | COCC(=O)N1CC(CN2CCC(c3nc(-n4nc(C(C)C)c5ccc(F)c(F)c54)no3)CC2)C1 [Example 473, 1-{3-[(4-{3-[6,7-difluoro-3-(propan-2-yl)-1H-indazol-1-yl]-1,2,4-oxadiazol-5-yl}piperidin-1-yl)methyl]azetidin-1-yl}-2-methoxyethanone trifluoroacetate] |  |
| 66 nM | 85.4% | 2.7 nM | CC(=O)N1CCC(N2CCC(c3nc(-n4nc(C(C)C)c5ccccc54)no3)CC2)CC1 [Example 458, 1-(4-{3-[3-(propan-2-yl)-1H-indazol-1-yl]-1,2,4-oxadiazol-5-yl}-1,4′-bipiperidin-1′-yl)ethanone trifluoroacetate] |  |
| < 20 nM | 68.7% | 32.4 nM | CCc1nn(-c2noc(C3CCN(CC4CCN(C(C)=O)CC4)CC3)n2)c2c(F)c(F)ccc12 [Example 478, 1-[4-({4-[3-(3-ethyl-6,7-difluoro-1H-indazol-1-yl)-1,2,4-oxadiazol-5-yl]piperidin-1-yl}methyl)piperidin-1-yl]ethanone trifluoroacetate] |  |

| Compound | IC50 (5-HT4 receptor; [1]) | Emax (human 5-HT4b receptor) | EC50 (human 5-HT4b receptor) | IC50 (5-HT4 receptor) |
| --- | --- | --- | --- | --- |
| CC(C)c1nn(-c2noc(C3CCN([C@@H]4C[C@H]5CC[C@@H](C4)N5C(=O)CO)CC3)n2)c2c(F)cccc12 [Example 533, 1-[(3-exo)-3-(4-{3-[7-fluoro-3-(propan-2-yl)-1H-indazol-1-yl]-1,2,4-oxadiazol-5-yl}piperidin-1-yl)-8-azabicyclo[3.2.1]oct-8-yl]-2-hydroxyethanone] |  | 102% | 3.8 nM | < 20 nM |
| CC(=O)N1CCC(N2CCC(O)(c3nc(-n4nc(C(C)C)c5cccc(F)c54)no3)CC2)CC1 [Example 457, 1-(4-{3-[7-fluoro-3-(propan-2-yl)-1H-indazol-1-yl]-1,2,4-oxadiazol-5-yl}-4-hydroxy-1,4′-bipiperidin-1′-yl)ethanone] |  | 72.2% | 12.7 nM | 85.3 nM |
| CC(C)c1nn(-c2noc(C3(O)CCN(C4CCN(C(=O)CO)CC4)CC3)n2)c2c(F)cccc12 [Example 551, 1-(4-{3-[7-fluoro-3-(propan-2-yl)-1H-indazol-1-yl]-1,2,4-oxadiazol-5-yl}-4-hydroxy-1,4′-bipiperidin-1′-yl)-2-hydroxyethanone] |  | 70.4% | 18.5 nM | 81.9 nM |
